Experimental data from paper PMC10650714, “Double Attack to Oxidative Stress in Neurodegenerative Disorders: MAO-B and Nrf2 as Elected Targets” (Molecules, 2023).

Columns and labels:
[1] = target: T1, recombinant hMAO-B (Homo sapiens, UniProt P27338); test: Time-dependent inhibition study on hMAO-B; assay type: biochemical; details: pre-incubation 0 to about 20 min, 5 and 20 µM
T1 construct: purchased Fluka-Sigma-Aldrich s.r.l; (Italy); host or cells: Baculovirus infected BT1 cells
T1 sequence (P27338 1-520): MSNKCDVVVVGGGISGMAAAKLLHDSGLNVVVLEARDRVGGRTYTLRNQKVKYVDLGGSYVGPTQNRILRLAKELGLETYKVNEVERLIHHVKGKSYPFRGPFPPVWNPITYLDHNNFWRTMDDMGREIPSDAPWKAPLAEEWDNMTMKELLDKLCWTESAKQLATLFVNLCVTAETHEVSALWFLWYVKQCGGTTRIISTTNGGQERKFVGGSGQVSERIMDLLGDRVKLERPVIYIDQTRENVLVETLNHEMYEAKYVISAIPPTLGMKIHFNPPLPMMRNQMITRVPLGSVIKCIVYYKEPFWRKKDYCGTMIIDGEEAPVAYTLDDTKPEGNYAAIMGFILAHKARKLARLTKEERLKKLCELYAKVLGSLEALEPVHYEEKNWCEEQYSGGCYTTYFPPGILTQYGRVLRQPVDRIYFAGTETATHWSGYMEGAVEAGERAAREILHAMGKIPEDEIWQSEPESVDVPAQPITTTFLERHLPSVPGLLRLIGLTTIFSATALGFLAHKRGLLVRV
Protocol: Time-dependent inhibition studies. The time-dependent inactivation by 2 was performed as previously reported. In detail, recombinant hMAO-B was pre-incubated in the K/Pi buffer for periods from 0 to about 20 min, at 37 °C in the absence (control sample) and in the presence of compound 2 (5 and 20 µM). After various pre-incubation times (at least 5 times after mixing of enzyme and inhibitor), the residual enzyme activity was determined: an aliquot of sample was withdrawn and diluted in the assay buffer (50-fold dilution) and then, the substrate was added under a “saturating” condition (Kyn = 300 µM).

[2] = system: SH-SY5Y human neuroblastoma cells; test: Cell viability, MTT assay; assay type: cell-based; details: 0.5 to 50 μM, 24 h
Protocol: To define the concentration range to use in the in vitro experimental settings, the cytotoxicity of compounds 1–5 was evaluated in SH-SY5Y human neuroblastoma cells, in comparison with CAPE, the reference compound for Nrf2 activation (Figure 5). Cells were treated with compounds at concentrations ranging from 0.5 to 50 μM for 24 h and cell viability was evaluated via MTT assay. All compounds were well tolerated at each concentration, resulting in no or very low reduction in cell viability.
MTT assay, based on the mitochondrial dehydrogenase activity that reduces 3-(4,5-dimethylthiazol-2-yl)-2,5-diphenyl-tetrazolium bromide (MTT, Sigma, St Louis, MO, USA) is one of the standard assays used to measure the cellular metabolic activity as an indicator of cell viability, proliferation and cytotoxicity in a quantitative colorimetric assay. At day 0, SH-SY5Y cells were plated at a density of 2.5 × 10^4 viable cells per well in 96-well plates. After treatment, according to the experimental setting, cells were exposed to an MTT solution in serum-free medium (1 mg/mL). Following 4 h of incubation with MTT and treatment with SDS for 24 h, cell viability reduction was quantified by using a Synergy HT multidetection microplate reader (Bio-Tek).

melting point: 150 to 151 °C
SMILES: O=C(/C=C/c1ccc(O)c(O)c1)Oc1ccc(CC2SC(=O)NC2=O)cc1 (stereo not drawn) [Compound 2, 4-((2,4-Dioxothiazolidin-5-yl)methyl)phenyl (E)-3-(3,4-Dihydroxyphenyl)acrylate]
time-dependent inhibition / inactivation of hMAO-B [1]: no inactivation and no time-dependent inhibition
cell viability / cytotoxicity [2]: not cytotoxic
